Source: ChEMBL document CHEMBL1201862, “PubChem BioAssay data set” (2004)
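Assay format: 96-well plates, 48-hour exposure. GI50 is the concentration that inhibits growth by half.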 Calls of active or inactive are those of the source. Cut-off read from the data, not from the text of the source: active = GI50 up to about 1.1 µM and inactive = higher.

Key:
Assay in all cases: growth of human tumour cells (NCI), 48 h
M14 = test system: M14
HCT-116 = test system: HCT-116
NCI/ADR-RES = test system: NCI/ADR-RES
SR = test system: SR
OVCAR-8 = test system: OVCAR-8
KM12 = test system: KM12
CCRF-CEM = test system: CCRF-CEM
NCI-H23 = test system: NCI-H23
CAKI-1 = test system: CAKI-1
MDA-MB-231 = test system: MDA-MB-231
MOLT-4 = test system: MOLT-4
UACC-257 = test system: UACC-257
HCC 2998 = test system: HCC 2998
SW-620 = test system: SW-620
NCI-H460 = test system: NCI-H460
OVCAR-4 = test system: OVCAR-4
A549 = test system: A549
IGROV-1 = test system: IGROV-1
SF-539 = test system: SF-539
DU-145 = test system: DU-145
EKVX = test system: EKVX
SK-MEL-28 = test system: SK-MEL-28
SK-MEL-2 = test system: SK-MEL-2
LOX IMVI = test system: LOX IMVI
SK-MEL-5 = test system: SK-MEL-5
SNB-75 = test system: SNB-75
SN12C = test system: SN12C
Hs-578T = test system: Hs-578T
NCI-H522 = test system: NCI-H522
COLO 205 = test system: COLO 205
HOP-92 = test system: HOP-92
TK-10 = test system: TK-10
NCI-H226 = test system: NCI-H226
MCF7 = test system: MCF7
PC-3 = test system: PC-3
HCT-15 = test system: HCT-15
OVCAR-5 = test system: OVCAR-5
MDA-MB-435 = test system: MDA-MB-435
SNB-19 = test system: SNB-19
UACC-62 = test system: UACC-62
T47D = test system: T47D
RXF 393 = test system: RXF 393
MDA-N = test system: MDA-N
ACHN = test system: ACHN
UO-31 = test system: UO-31
RPMI-8226 = test system: RPMI-8226
K562 = test system: K562
U-251 = test system: U-251
786-0 = test system: 786-0
SF-268 = test system: SF-268
A498 = test system: A498
HL-60 = test system: HL-60
SK-OV-3 = test system: SK-OV-3
BT-549 = test system: BT-549
OVCAR-3 = test system: OVCAR-3
HOP-62 = test system: HOP-62
SF-295 = test system: SF-295
HT-29 = test system: HT-29
Malme-3M = test system: Malme-3M

CC[C@@]1(O)C(=O)OCc2c1cc1n(c2=O)Cc2cc3c(NC(=O)CN)cccc3nc2-1
GI50 (M14): 0.098 µM (active) | GI50 (HCT-116): 0.441 µM (active) | GI50 (NCI/ADR-RES): 0.188 µM (active) | GI50 (SR): < 0.01 µM (active) | GI50 (OVCAR-8): 0.392 µM (active) | GI50 (KM12): 2.96 µM (inactive) | GI50 (CCRF-CEM): < 0.01 µM (active) | GI50 (NCI-H23): 0.114 µM (active) | GI50 (CAKI-1): < 0.01 µM (active) | GI50 (MDA-MB-231): 14.5 µM (inactive) | GI50 (MOLT-4): < 0.0199 µM (active) | GI50 (UACC-257): 1.43 µM (inactive) | GI50 (HCC 2998): 1.96 µM (inactive) | GI50 (SW-620): 2.07 µM (inactive) | GI50 (NCI-H460): < 0.0318 µM (active) | GI50 (OVCAR-4): 4.51 µM (inactive) | GI50 (A549): 0.766 µM (active) | GI50 (IGROV-1): 3.42 µM (inactive) | GI50 (SF-539): < 0.0241 µM (active) | GI50 (DU-145): 0.065 µM (active) | GI50 (EKVX): 16.6 µM (inactive) | GI50 (SK-MEL-28): 7.05 µM (inactive) | GI50 (SK-MEL-2): 3.7 µM (inactive) | GI50 (LOX IMVI): 0.0575 µM (active) | GI50 (SK-MEL-5): 0.407 µM (active) | GI50 (SNB-75): 0.0733 µM (active) | GI50 (SN12C): < 0.0115 µM (active) | GI50 (Hs-578T): > 36.2 µM (inactive) | GI50 (NCI-H522): 0.277 µM (active) | GI50 (COLO 205): 6.1 µM (inactive) | GI50 (HOP-92): 3.48 µM (inactive) | GI50 (TK-10): 10.4 µM (inactive) | GI50 (NCI-H226): 0.217 µM (active) | GI50 (MCF7): 0.0466 µM (active) | GI50 (PC-3): 4.92 µM (inactive) | GI50 (HCT-15): 8.13 µM | GI50 (OVCAR-5): 7.8 µM (inactive) | GI50 (MDA-MB-435): 1.49 µM (inactive) | GI50 (SNB-19): 0.154 µM (active) | GI50 (UACC-62): 0.0506 µM (active) | GI50 (T47D): < 0.0236 µM (active) | GI50 (RXF 393): < 0.0463 µM (active) | GI50 (MDA-N): 2.1 µM (inactive) | GI50 (ACHN): 0.0521 µM (active) | GI50 (UO-31): 0.191 µM (active) | GI50 (RPMI-8226): 1.88 µM (inactive) | GI50 (K562): 1.37 µM (inactive) | GI50 (U-251): 0.0906 µM (active) | GI50 (786-0): 0.0612 µM (active) | GI50 (SF-268): < 0.024 µM (active) | GI50 (A498): 0.481 µM (active) | GI50 (HL-60): < 0.0362 µM (active) | GI50 (SK-OV-3): 0.13 µM (active) | GI50 (BT-549): 0.171 µM (active) | GI50 (OVCAR-3): 2.17 µM (inactive) | GI50 (HOP-62): 0.109 µM (active) | GI50 (SF-295): 0.115 µM (active) | GI50 (HT-29): 2.69 µM (inactive) | GI50 (Malme-3M): 1.41 µM (inactive)

OC1[C@H](O)CN(OCc2ccccc2)C[C@@H]1O (some centres not stated)
GI50 (M14): > 100 µM (inactive) | GI50 (HCT-116): > 100 µM (inactive) | GI50 (NCI/ADR-RES): > 100 µM (inactive) | GI50 (SR): > 100 µM (inactive) | GI50 (OVCAR-8): > 100 µM (inactive) | GI50 (KM12): > 100 µM (inactive) | GI50 (CCRF-CEM): > 100 µM (inactive) | GI50 (NCI-H23): > 100 µM (inactive) | GI50 (CAKI-1): > 100 µM (inactive) | GI50 (MDA-MB-231): > 100 µM (inactive) | GI50 (MOLT-4): > 100 µM (inactive) | GI50 (UACC-257): > 100 µM (inactive) | GI50 (HCC 2998): > 100 µM (inactive) | GI50 (SW-620): > 100 µM (inactive) | GI50 (NCI-H460): > 100 µM (inactive) | GI50 (OVCAR-4): > 100 µM (inactive) | GI50 (A549): > 100 µM (inactive) | GI50 (IGROV-1): > 100 µM (inactive) | GI50 (SF-539): > 100 µM (inactive) | GI50 (DU-145): > 100 µM (inactive) | GI50 (EKVX): > 100 µM (inactive) | GI50 (SK-MEL-28): > 100 µM (inactive) | GI50 (SK-MEL-2): > 100 µM (inactive) | GI50 (LOX IMVI): > 100 µM (inactive) | GI50 (SK-MEL-5): > 100 µM (inactive) | GI50 (SNB-75): > 100 µM (inactive) | GI50 (SN12C): > 100 µM (inactive) | GI50 (Hs-578T): > 100 µM (inactive) | GI50 (NCI-H522): > 100 µM (inactive) | GI50 (COLO 205): > 100 µM (inactive) | GI50 (HOP-92): > 100 µM (inactive) | GI50 (TK-10): > 100 µM (inactive) | GI50 (NCI-H226): > 100 µM (inactive) | GI50 (MCF7): > 100 µM (inactive) | GI50 (PC-3): > 100 µM (inactive) | GI50 (HCT-15): > 100 µM | GI50 (OVCAR-5): > 100 µM (inactive) | GI50 (MDA-MB-435): > 100 µM (inactive) | GI50 (SNB-19): > 100 µM (inactive) | GI50 (UACC-62): > 100 µM (inactive) | GI50 (T47D): > 100 µM (inactive) | GI50 (RXF 393): > 100 µM (inactive) | GI50 (MDA-N): > 100 µM (inactive) | GI50 (ACHN): > 100 µM (inactive) | GI50 (UO-31): > 100 µM (inactive) | GI50 (RPMI-8226): > 100 µM (inactive) | GI50 (K562): > 100 µM (inactive) | GI50 (U-251): > 100 µM (inactive) | GI50 (786-0): > 100 µM (inactive) | GI50 (SF-268): > 100 µM (inactive) | GI50 (A498): > 100 µM (inactive) | GI50 (HL-60): > 100 µM (inactive) | GI50 (BT-549): > 100 µM (inactive) | GI50 (OVCAR-3): > 100 µM (inactive) | GI50 (HOP-62): > 100 µM (inactive) | GI50 (SF-295): > 100 µM (inactive) | GI50 (HT-29): > 100 µM (inactive) | GI50 (Malme-3M): > 100 µM (inactive)
